# Reference: the NIST ThermoML archive (doi:10.1016/j.tca.2012.04.032)
# Numbers after ± are expanded uncertainties.
# How the values were obtained:
# [1] = Molar enthalpy of transition or fusion; details: Crystal; DSC
# [2] = Crystal; DTA
SMILES,Molar enthalpy of transition or fusion [1] [kcal/mol],Triple point temperature [2] [K]
"c1ccc(-c2nc(-c3ccccc3)c(-c3ccccc3)[nH]2)cc1 [2,4,5-triphenyl-1H-imidazole]",8.92 ± 0.194,550.95 ± 0.7
c1ccc(-c2ncc[nH]2)cc1 [2-phenyl-1H-imidazole],4.26 ± 0.108,419.95 ± 0.7
"c1ccc(-c2nc[nH]c2-c2ccccc2)cc1 [4,5-diphenylimidazole]",7.73 ± 0.17,504.95 ± 0.7
c1ccc2cc3ccccc3cc2c1 [anthracene],6.1 ± 0.136,487.75 ± 0.7
